Where two headings read alike, the source gives them in different places.
How the values were obtained:
[1] = design: method as in PMID 26392221; conditions: cited from earlier work
recurrent GBM = system: recurrent GBM; design: method as in doi:10.1200/JCO.2016.34.15_suppl.e14123; conditions: 12 recurrent GBM patients, study terminated; cited from earlier work
GBM22 cells [2] = test: In vitro dose response, CellTiter-Glo ATP, GBM22; format: cell-based; conditions: Homo sapiens, 72 h
Protocol: (§1) Figure 1 UM-002 reduces GBM cell proliferation in vitro. (A) Structure of UM-002. […] Reduction in ATP levels was measured using CellTiter-Glo after 72 h of compound treatment and luminescence was normalized to the positive control. Dose response curves were calculated using a variable slope (4 parameters) fit. EC50 and the percentage of positive control at EC50 was calculated for each compound.
(§2) The patient derived xenograft (PDX) glioblastoma cell lines, GBM22 and GBM39, were obtained from the Mayo Clinic Brain Tumor PDX national resource. Cells were cultured as previously described[39],[40]. Since genetic drift is known to occur with passage in vivo and in vitro, a stock of early passage tumor tissue is maintained in storage and xenograft lines are passaged a maximum of 20 times before restoration from early passage tissue. […]
(§3) PDX cells were plated at 3000 cells/well in a 384 well flat bottom plate, and adherent cultures were established overnight. […] Following a 72-h incubation, CellTiter-Glo (Promega, Wisconsin, USA) was used to measure ATP content and luminescence was read on an EnVision plate reader, as previously described. Luminescence was normalized to 10 µM Velcade as a positive control, and 0.1% DMSO as a negative control. Dose response curves were calculated in GraphPad PRISM (version 8.4.3) using a variable slope (four parameter) fit.

GBM22 cells [3] = test: Cerebral brain organoid-GBM co-culture, proliferation and invasion; format: cell-based, human; conditions: 9 days co-culture; JQ1 500 nM, MK-8628 1000 nM, UM-002 100 nM
Description: On day 0 of organoid production, induced pluripotent stem cells (iPSCs), at ~ 80% confluence, were dissociated into small clumps with gentle cell dissociation reagent (StemCell Technologies, 07174) and plated into round-bottom, low-attachment 96 well plates (ThermoFisher, 174925; ~ 15,000 cells per well). Initial media, consisting of mTeSR Plus (Stem Cell Technologies, 05825) supplemented with 5 µm A-83 (Peprotech, 9094360) and 5 µm Dorsomorphin (Peprotech, 8666430), was replaced every other day starting at day 2 by removing half of the media in each well (100 µL) and replacing with fresh media three times. On day 8, media was changed to a base media of Neurobasal A media (Gibco, 10888022) with NeuroCult SM1 (StemCell Technologies, 05711), glutamax (Gibco, 35050061), and Pen/strep (Gibco, 15140122) supplemented with EGF (20 ng/ml; Alomone Labs, E-100) and FGF2 (20 ng/ml; Alomone Labs, F-170). Media was similarly exchanged every other day until day 20 when the mitogenic supplements were exchanged for differentiating factors: BDNF (20 ng/ml; Alomone Labs, B-250) and NT3 (20 ng/ml; Alomone Labs, N-260) in the same base media. After two weeks in differentiation media, organoids could be maintained in the base media for > 100 days[41]. […]

cerebral brain organoids = test: Brain organoid viability (organoid volume and surface area) in co-culture; format: cell-based, human; conditions: 9 days; JQ1 500 nM, MK-8628 1000 nM, UM-002 100 nM
Protocol: GBM22 cells were dissociated into a single cell suspension with Trypsin (Gibco, 15,400,054) and seeded (17,500 cells/well) into round-bottom, low-attachment 96-well plates containing a single mature organoid per well. Cells were seeded by removing 100 µL of media and replacing with 100 µL of cell suspension. GBM cells were allowed to settle around the organoid and attach overnight. After 24 h (day 1 of co-culturing) organoids were either fixed (see below) and stored in PBS as an untreated control or treated with compounds. For treatment, compounds were dissolved in DMSO and diluted in organoid maintenance media. […] On the first day of treatment, organoids were treated by removing half of the media (100 µL) and replacing with 100 µL of a 2 × compound solution. Compounds were renewed with 1 × solutions in the new media every other day following the normal media replacement regimen until the conclusion of the experiment.
Statistical comparisons performed using an unpaired, two-tailed t test or one-way ANOVA with Tukey HSD post-hoc.

GBM39 cells = test: In vitro dose response, CellTiter-Glo ATP, GBM39; format: cell-based; conditions: Homo sapiens
Protocol: as §1, §2, §3

SMILES | Phenotype in mice [1] | Progression-free survival (recurrent GBM) | EC50 (GBM22 cells [2]; read-out: GBM22 logEC50 (converted)) [nM] | EC50 (GBM22 cells [2]; CellTiter-Glo, 4 parameter fit, read-out: GBM22 EC50) [nM] | Number of invading GBM cells relative to DMSO control (GBM22 cells [3]) | Total number of GBM cells relative to DMSO control (GBM22 cells [3]) | Brain organoid viability, as determined by organoid volume and surface area (cerebral brain organoids) | EC50 (GBM39 cells; GBM39, 72 h, read-out: GBM39 logEC50 (converted)) [nM] | EC50 (GBM39 cells; GBM39, 72 h, CellTiter-Glo, 4 parameter fit, read-out: GBM39 EC50) [nM]
CC(=O)N1c2ccc(-c3ccc(CN4CCCCC4)cc3)cc2[C@H](Nc2ccccc2)C[C@H]1C [I-BET858] | autism spectrum disorder phenotype | – | – | – | – | – | – | – | –
Cc1sc2c(c1C)C(c1ccc(Cl)cc1)=N[C@@H](CC(=O)Nc1ccc(O)cc1)c1nnc(C)n1-2 [MK-8628] | – | no increase in progression-free survival | 1390 | 1390 | reduced | reduced | did not negatively impact | 813 | 812

From publication PMC8642539, “The novel BET inhibitor UM-002 reduces glioblastoma cell proliferation and invasion” (Scientific Reports, 2021)
